# From PMC7764606 (Cancers, 2020)
# Key:
# [1] = test system: HCT116-EV cells; experiment: MTT cell viability, HCT116-EV cells (incl. Chou-Talalay analysis); type: cell-based, human
# Description: (§1) HCT116 cells were seeded (1.25 × 10^5 cells/well) in 24-well plates and cultured for 24 h. For the transient expression of the recombinant human AKR1C3, the cells were transfected with a pCI_AKR1C3 or empty pCI plasmid as control (previously described in a study by Hofman et al.) according to the manufacturer’s instructions (jetPRIME® Transfection Reagent; Polyplus Transfection®, Illkirch, France). For each 24-well plate, a mixture of 0.75 µL of the jetPRIME® Transfection Reagent and 0.25 µg of plasmid was incubated for 10 min at room temperature. Then, polyplexes were added to the HCT116 cells with 0.5 mL of fresh DMEM supplemented with 10% FBS and incubated for 24 h (37 °C, 5% CO2). The expression of recombinant AKR1C3 was verified by western blotting as per methods described previously.
# Twenty-four hours prior to the experiment, transfected HCT116 cells (8 × 10^3 cells/well) or A549 cells (5 × 10^3 cells/well) were seeded in 96-well plates. The cell culture medium was replaced with fresh medium containing increasing amounts of Dau (final concentrations: 0.01, 0.05, 0.1, 0.25, 0.5, 0.75, 1, and 10 µM) with or without BTK inhibitors (final concentrations: 1, 5, and 10 µM). After 72 h of incubation under standard conditions (37 °C, 5% CO2), cell viability was assessed by MTT (Sigma-Aldrich, Prague, Czech Republic) assay. For this, 50 µL of the MTT solution (3 mg/mL) was added to each well and incubated for 30 min. The supernatant was collected, and the cell monolayers were dissolved in 100 µL of DMSO. The absorbance was measured at 570 and 690 nm by a microplate reader Infinite M200 (Tecan, Salzburg, Austria), and the background values at 690 nm were subtracted from the absorbance obtained at 570 nm. The half-maximal inhibitory concentrations (IC50) were calculated using GraphPad Prism 8.1.2. The drug combination pharmacodynamics were determined by the Chou-Talalay method using the CompuSyn ver. 3.0.1 software (ComboSyn Inc., Paramus, NJ, USA).
# [2] = test system: T1, AKR1C3 in HCT116-C3 cells; experiment: Dau metabolism to Dau-ol in HCT116 cells transiently overexpressing AKR1C3; type: cell-based, human; conditions: 5 h
# T1 construct: expressed in transfected cells; host or cells: HCT116
# Description: as §1
# After transfection of HCT116 cells or seeding of A549 cells (25 × 10^3 cells/well) in 24-well plates for 24 h, the medium was harvested and replaced with DMEM supplemented with 10% FBS containing 1 µM daunorubicin, with or without increasing concentrations (1, 5, and 10 μM) of BTK inhibitors. Cells were incubated (37 °C, 5% CO2) for 2.5 and 5 h (transfected HCT116) or only 5 h (A549). Then, the medium was collected and the cells were lysed in lysis buffer (25 mM Tris, 150 mM NaCl, and 1% Triton X-100, pH 7.8) for 15 min at room temperature. The collected medium was combined with cell lysate for further extraction and analysis of metabolites, as per methods described previously.
# [3] = BTK-inhibitor 5 µM + Dau 0.25 µM
# [4] = BTK-inhibitor 5 µM + Dau 0.50 µM
# [5] = BTK-inhibitor 5 µM + Dau 0.75 µM
# [6] = BTK-inhibitor 5 µM + Dau 1.00 µM
# [7] = BTK-inhibitor 10 µM + Dau 0.25 µM
# [8] = BTK-inhibitor 10 µM + Dau 0.50 µM
# [9] = BTK-inhibitor 10 µM + Dau 0.75 µM
# [10] = BTK-inhibitor 10 µM + Dau 1.00 µM
structure (smiles),measurement,setting,value
"CC#CC(=O)N1CCC[C@H]1c1nc(-c2ccc(C(=O)Nc3ccccn3)cc2)c2c(N)nccn12 [Acalabrutinib, acalabrutinib]",Combination index (CI),[1]; [3],0.64 ± 0.07
same,Dose reduction index for Dau,[1]; [3],1.59 ± 0.16
same,Fraction affected (Fa %),[1]; [3],57.98 ± 10.7%
same,Combination index (CI),[1]; [4],0.80 ± 0.02
same,Dose reduction index for Dau,[1]; [4],1.26 ± 0.03
same,Fraction affected (Fa %),[1]; [4],76.14 ± 4.55%
same,Combination index (CI),[1]; [5],0.73 ± 0.05
same,Dose reduction index for Dau,[1]; [5],1.38 ± 0.09
same,Fraction affected (Fa %),[1]; [5],88.86 ± 2.18%
same,Combination index (CI),[1]; [6],0.93 ± 0.17
same,Dose reduction index for Dau,[1]; [6],1.10 ± 0.20
same,Fraction affected (Fa %),[1]; [6],89.81 ± 0.07%
same,Combination index (CI),[1]; [7],0.64 ± 0.01
same,Dose reduction index for Dau,[1]; [7],1.60 ± 0.00
same,Fraction affected (Fa %),[1]; [7],58.22 ± 6.27%
same,Combination index (CI),[1]; [8],0.68 ± 0.05
same,Dose reduction index for Dau,[1]; [8],1.48 ± 0.11
same,Fraction affected (Fa %),[1]; [8],81.17 ± 2.72%
same,Combination index (CI),[1]; [9],0.62 ± 0.12
same,Dose reduction index for Dau,[1]; [9],1.65 ± 0.31
same,Fraction affected (Fa %),[1]; [9],91.66 ± 0.08%
same,Combination index (CI),[1]; [10],0.88 ± 0.12
same,Dose reduction index for Dau,[1]; [10],1.15 ± 0.15
same,Fraction affected (Fa %),[1]; [10],90.59 ± 0.95%
same,IC50,"[1]; Homo sapiens, 72 h MTT, read-out: IC50 of BTK inhibitor alone (cell viability)",33 µM
same,decrease in AKR1C3 activity (Dau to Dau-ol),[2]; 1 µM BTK inhibitor + 1 µM Dau,31.96% ± 13.51%
same,decrease in AKR1C3 activity (Dau to Dau-ol),[2]; 5 µM BTK inhibitor + 1 µM Dau,67.15% ± 10.35%
same,decrease in AKR1C3 activity (Dau to Dau-ol),[2]; 10 µM BTK inhibitor + 1 µM Dau,65.56% ± 1.53%
